# Earlier results, collected in US20080317843A1, “NANOPARTICULATE FORMULATIONS OF MODAFINIL” (Elan Corporation plc, priority 2006, published 2008).
# What was measured:
# [1] = for share of trough concentration (Cminss) of circulating modafinil: after once daily dosing
# CYP2C19 = CYP2C19 (Homo sapiens, UniProt P33261)
# receptors for serotonin = conditions: pharmacologically relevant concentrations
# [2] = system: receptors for norepinephrine; conditions: pharmacologically relevant concentrations
# receptors for melatonin = conditions: pharmacologically relevant concentrations
# [3] = target: receptors for histamine-3 (Homo sapiens, UniProt Q9Y5N1); conditions: pharmacologically relevant concentrations
# receptors for adenosine = conditions: pharmacologically relevant concentrations
# receptors for GABA = conditions: pharmacologically relevant concentrations
# MAO-B = target: T1, MAO-B (Homo sapiens, UniProt P27338)
# T1 sequence (P27338 1-520): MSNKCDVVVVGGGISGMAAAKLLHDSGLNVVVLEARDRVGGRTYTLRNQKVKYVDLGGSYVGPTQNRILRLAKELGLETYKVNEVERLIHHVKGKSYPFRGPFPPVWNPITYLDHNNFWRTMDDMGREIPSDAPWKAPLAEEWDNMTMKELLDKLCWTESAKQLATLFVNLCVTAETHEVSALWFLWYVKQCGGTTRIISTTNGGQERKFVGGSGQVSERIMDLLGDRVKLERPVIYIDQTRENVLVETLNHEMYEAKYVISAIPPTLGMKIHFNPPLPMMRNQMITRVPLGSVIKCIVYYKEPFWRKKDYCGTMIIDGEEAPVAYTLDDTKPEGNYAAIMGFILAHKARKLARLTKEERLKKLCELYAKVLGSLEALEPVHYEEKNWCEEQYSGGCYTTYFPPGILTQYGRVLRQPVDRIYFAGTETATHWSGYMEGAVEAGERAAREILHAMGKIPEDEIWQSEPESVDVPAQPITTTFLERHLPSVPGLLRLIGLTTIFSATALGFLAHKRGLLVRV
# [4] = system: receptors for benzodiazepines; conditions: pharmacologically relevant concentrations
# CYP3A4 = conditions: chronic administration of modafinil 400 mg; substrates given orally
# CYP2C19, sequence (P33261 whole entry): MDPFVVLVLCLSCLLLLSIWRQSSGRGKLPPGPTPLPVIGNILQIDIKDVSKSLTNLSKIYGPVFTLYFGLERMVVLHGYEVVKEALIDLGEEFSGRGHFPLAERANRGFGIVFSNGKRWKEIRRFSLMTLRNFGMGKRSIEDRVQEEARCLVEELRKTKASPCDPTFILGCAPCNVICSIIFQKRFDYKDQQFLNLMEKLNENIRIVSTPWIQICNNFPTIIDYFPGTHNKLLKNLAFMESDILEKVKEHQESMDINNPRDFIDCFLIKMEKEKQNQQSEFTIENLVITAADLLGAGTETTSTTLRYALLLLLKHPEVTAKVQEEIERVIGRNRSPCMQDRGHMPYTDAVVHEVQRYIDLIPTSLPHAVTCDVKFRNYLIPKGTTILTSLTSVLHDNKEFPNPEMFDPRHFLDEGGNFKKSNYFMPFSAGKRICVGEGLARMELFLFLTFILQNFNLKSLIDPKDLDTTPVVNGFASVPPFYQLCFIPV
# receptors for histamine-3, sequence (Q9Y5N1 whole entry): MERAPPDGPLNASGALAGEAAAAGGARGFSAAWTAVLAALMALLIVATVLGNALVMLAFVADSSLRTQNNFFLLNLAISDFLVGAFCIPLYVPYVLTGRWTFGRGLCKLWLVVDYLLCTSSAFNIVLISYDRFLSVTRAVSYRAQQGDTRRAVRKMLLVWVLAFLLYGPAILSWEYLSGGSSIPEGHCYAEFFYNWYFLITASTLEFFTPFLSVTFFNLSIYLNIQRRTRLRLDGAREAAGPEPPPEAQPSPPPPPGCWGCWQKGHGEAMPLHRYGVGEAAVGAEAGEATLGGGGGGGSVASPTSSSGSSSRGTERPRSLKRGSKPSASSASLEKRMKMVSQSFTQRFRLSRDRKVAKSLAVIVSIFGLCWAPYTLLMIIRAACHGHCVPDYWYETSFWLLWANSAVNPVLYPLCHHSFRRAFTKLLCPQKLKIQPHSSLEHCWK
smiles,measurement,setting,value
"NC(=O)C[S@@+]([O-])C(c1ccccc1)c1ccccc1 (single isomer, unassigned) [l-isomer]",share of trough concentration (Cminss) of circulating modafinil,[1],90%
same,total exposure relative to the d-isomer,[1]; at steady state,approximately three times
same,half-life relative to the d-isomer,[1]; humans,approximately three times
NC(=O)CS(=O)(=O)C(c1ccccc1)c1ccccc1 [modafinil sulfone],inhibition of CYP2C19,CYP2C19,reversible inhibitors
"NC(=O)C[S+]([O-])C(c1ccccc1)c1ccccc1 (single isomer, unassigned) [d-isomer]",share of trough concentration (Cminss) of circulating modafinil,[1],10%
"O=C(C[S+]([O-])C(c1ccccc1)c1ccccc1)NO (centres unmarked) [Adrafinil, 2-(diphenylmethyl) sulfinyl acetohydroxamic acid]",solubility in acetone,,sparingly to slightly soluble
same,solubility in cyclohexane,,practically insoluble
same,solubility in methanol,,sparingly to slightly soluble
same,solubility in water,,practically insoluble
"NC(=O)C[S+]([O-])C(c1ccccc1)c1ccccc1 (centres unmarked) [modafinil, 2-[(diphenylmethyl)sulfinyl]acetamide]",binding to receptors for serotonin,receptors for serotonin,does not bind
same,binding to receptors for norepinephrine,[2],does not bind
same,binding to receptors for melatonin,receptors for melatonin,does not bind
same,binding to receptors for histamine-3,[3],does not bind
same,solubility in acetone,,sparingly to slightly soluble
same,aqueous insolubility,aqueous,< 1 mg/mL
same,solubility in cyclohexane,,practically insoluble
same,solubility in methanol,,sparingly to slightly soluble
same,solubility in water,,practically insoluble
same,inhibition of CYP2C19,CYP2C19,reversible inhibitors
same,binding to receptors for adenosine,receptors for adenosine,does not bind
same,effective elimination half-life,[1]; after multiple doses,about 15 hours
same,decrease in oral clearance (CL/F),"[1]; single dose 200 mg, 12 subjects mean age 63 years vs matched younger subjects",~20%
same,delay of absorption and (tmax) if taken with food,[1]; with food,delayed by approximately one hour
same,effect of food on overall bioavailability,[1]; with food,no effect
same,binding to receptors for GABA,receptors for GABA,does not bind
same,inhibition of the activity of MAO-B,MAO-B,does not inhibit
same,binding to receptors for benzodiazepines,[4],does not bind
same,"systemic exposure to two CYP3A4 substrates, ethinyl estradiol, and triazolam",CYP3A4,decrease
same,inhibition of the activities of phosphodiesterases II-V,phosphodiesterases II-V,does not inhibit
